# Results reported in patent publication US20240174655A1, “INDAZOLE DERIVATIVES AS ANTAGONISTS OF THE MUSCARINIC ACETYLCHOLINE RECEPTOR M4” (Vanderbilt University, priority 2021, published 2024).
# Where two headings read alike, the source gives them in different places.
# How the values were obtained:
# [1] = system: catalepsy induced by the DA receptor antagonist haloperidol; conditions: cited from earlier work
# Human M4 = target: T1, Human M4 (Homo sapiens, UniProt P08173); test: mAChR M4 cell-based functional assay (calcium flux, EC80 acetylcholine response)
# T1 construct: expressed in transfected cells; host or cells: CHO-K1 (Chinese hamster ovary, ATCC), stably expressing M4 and Gqi5
# T1 sequence (P08173 1-479): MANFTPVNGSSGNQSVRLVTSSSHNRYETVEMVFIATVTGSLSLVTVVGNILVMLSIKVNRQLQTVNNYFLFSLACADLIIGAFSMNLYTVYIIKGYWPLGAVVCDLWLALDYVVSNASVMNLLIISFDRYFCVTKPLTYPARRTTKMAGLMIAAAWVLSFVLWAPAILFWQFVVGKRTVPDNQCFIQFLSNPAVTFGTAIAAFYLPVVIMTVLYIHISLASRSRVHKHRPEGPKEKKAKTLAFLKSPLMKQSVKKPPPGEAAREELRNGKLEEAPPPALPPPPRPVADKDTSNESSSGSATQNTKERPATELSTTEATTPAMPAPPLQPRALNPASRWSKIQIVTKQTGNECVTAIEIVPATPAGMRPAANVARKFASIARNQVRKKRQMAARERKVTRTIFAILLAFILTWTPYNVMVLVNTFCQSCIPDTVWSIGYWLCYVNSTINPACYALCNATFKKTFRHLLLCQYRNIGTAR
# Method: Human or rat M4 cDNA, along with the chimeric G protein Gqi5, were transfected into Chinese hamster ovary (CHO-K1) cells purchased from the American Type Culture Collection using Lipofectamine2000. M4/Gqi5/CHO cells were grown in Ham's F-12 medium containing […] heat-inactivated fetal bovine serum (FBS), 20 mM HEPES, 500 μg/mL G418 sulfate, and 200 μg/mL Hygromycin B.
# For high throughput measurement of agonist-evoked increases in intracellular calcium, CHO-K1 cells stably expressing muscarinic receptors were plated in growth medium lacking G418 and hygromycin at 15,000 cells/20 μL/well in Greiner 384-well black-walled, tissue culture (TC)-treated, clear-bottom plates (VWR). Cells were incubated overnight at 37° C. and 500 CO2. […] Compound master plates were formatted in a 10 point concentration-response curve (CRC) format (1:3 dilutions) in 100% DMSO with a starting concentration of 10 or 1 mM using a BRAVO liquid handler (Agilent). Test compound CRCs were then transferred to daughter plates (240 nL) using the Echo acoustic plate reformatter (Labcyte, Sunnyvale, CA) and then diluted into assay buffer (40 μL) to a 2× stock using a Thermo Fisher Combi (Thermo Fisher Scientific, Waltham, MA).
# Calcium flux was measured using the Functional Drug Screening System (FDSS) 6000 or 7000 (Hamamatsu Corporation, Tokyo, Japan) as an increase in the fluorescent static ratio. Compounds were applied to cells (20 μL, 2×) using the automated system of the FDSS at 2 seconds into the protocol and the data were collected at 1 Hz. […] Agonist activity was analyzed as a concentration-dependent increase in calcium mobilization upon compound addition. Positive allosteric modulator activity was analyzed as a concentration-dependent increase in the EC20 acetylcholine response. Antagonist activity was analyzed as a concentration-dependent decrease in the EC80 acetylcholine response; for the purposes of the tables herein, an IC50 (inhibitory concentration 50) was calculated as a concentration-dependent decrease of the response elicited by an EC80 concentration of acetylcholine. Concentration-response curves were generated using a four-parameter logistical equation in XLFit curve fitting software (IDBS, Bridgewater, NJ) for Excel (Microsoft, Redmond, WA) or Prism (GraphPad Software, Inc., San Diego, CA) or the Dotmatics software platform (Dotmatics, Bishop's Stortford, UK).
# Compounds were synthesized as described above.
# [2] = M4/Gqi5/CHO-K1 cells, % ACh maximum at 30 μM, read-out: Human M4 Emin (% ACh maximum at 30 μM)
# [3] = M4/Gqi5/CHO-K1 cells, decrease of the response to an EC80 concentration of acetylcholine, read-out: Human M4 IC50
smiles,measurement,setting,value
CN1[C@@H]2C[C@@H](OC(=O)[C@H](CO)c3ccccc3)C[C@H]1[C@@H]1O[C@@H]12 [scopolamine],reduction of haloperidol-induced catalepsy,[1]; M4 KO mice,ineffective
same,reversal of haloperidol-induced catalepsy,[1]; WT mice,completely reversed
"[2H]C1([2H])CC(C([2H])([2H])N2C[C@H]3C[C@H](Nc4ccc(-c5ccc6nn(C)cc6c5C)nn4)C[C@H]3C2)CC([2H])([2H])O1 [compound 21, (3aR,5s,6aS)-N-(6-(2,4-dimethyl-2H-indazol-5-yl)pyridazin-3-yl)-2-((tetrahydro-2H-pyran-4-yl-2,2,6,6-d4)methyl-d2)octahydrocyclopenta[c]pyrrol-5-amine]",remaining activity at 30 µM,Human M4; [2],3%
same,IC50,Human M4; [3],0.4 nM
"[2H]C([2H])(N1C[C@H]2C[C@H](Nc3ccc(-c4ccc5nn(C)cc5c4C)nn3)C[C@H]2C1)C1(F)CCOCC1 [compound 20, (3aR,5s,6aS)-N-(6-(2,4-dimethyl-2H-indazol-5-yl)pyridazin-3-yl)-2-((4-fluorotetrahydro-2H-pyran-4-yl)methyl-d2)octahydrocyclopenta[c]pyrrol-5-amine]",remaining activity at 30 µM,Human M4; [2],4%
same,IC50,Human M4; [3],0.99 nM
"[2H]C([2H])(C1CCOC(C)(C)C1)N1C[C@H]2C[C@H](Nc3ccc(-c4ccc5nn(C)cc5c4C)nn3)C[C@H]2C1 (stereo partly drawn) [compound 18, (3aR,5s,6aS)-N-(6-(2,4-dimethyl-2H-indazol-5-yl)pyridazin-3-yl)-2-((2,2-dimethyltetrahydro-2H-pyran-4-yl)methyl-d2)octahydrocyclopenta[c]pyrrol-5-amine]",remaining activity at 30 µM,Human M4; [2],4%
same,IC50,Human M4; [3],0.99 nM
"COc1cc(-c2ccc3nn(C)cc3c2C)nnc1N[C@H]1C[C@@H]2CN(CC3CCOCC3)C[C@@H]2C1 [compound 26, (3aR,5s,6aS)-N-(6-(2,4-dimethyl-2H-indazol-5-yl)-4-methoxypyridazin-3-yl)-2-((tetrahydro-2H-pyran-4-yl)-methyl)octahydrocyclopenta[c]pyrrol-5-amine]",remaining activity at 30 µM,Human M4; [2],4%
same,IC50,Human M4; [3],0.79 nM
"Cc1cc(N[C@H]2C[C@@H]3CN(CC4CCOCC4)C[C@@H]3C2)nnc1-c1ccc2nn(C)cc2c1C [compound 27, (3aR,5s,6aS)-N-(6-(2,4-dimethyl-2H-indazol-5-yl)-5-methylpyridazin-3-yl)-2-((tetrahydro-2H-pyran-4-yl)methyl)octahydrocyclopenta[c]pyrrol-5-amine]",remaining activity at 30 µM,Human M4; [2],3%
same,IC50,Human M4; [3],0.76 nM
"[2H]C([2H])(C1CCOCC1)N1C[C@H]2C[C@H](Nc3nnc(-c4ccc5nn(C)cc5c4C)cc3C)C[C@H]2C1 [compound 28, (3aR,5s,6aS)-N-(6-(2,4-dimethyl-2H-indazol-5-yl)-4-methylpyridazin-3-yl)-2-((tetrahydro-2H-pyran-4-yl)methyl-d2)octahydrocyclopenta[c]pyrrol-5-amine]",remaining activity at 30 µM,Human M4; [2],17%
"Cc1c(-c2nnc(N[C@H]3C[C@@H]4CN(CC5CCOCC5)C[C@@H]4C3)c3ccsc23)ccc2nn(C)cc12 [compound 25, 7-(2,4-dimethyl-2H-indazol-5-yl)-N-((3aR,5s,6aS)-2-((tetrahydro-2H-pyran-4-yl)methyl)-octahydrocyclopenta[c]pyrrol-5-yl)-thieno[2,3-d]pyridazin-4-amine]",IC50,Human M4,0.5 nM
same,remaining activity at 30 µM,"Human M4; CHO-K1, read-out: Human M4 Emin (% ACh maximum at 30 μM)",7%
"[2H]C([2H])(N1C[C@H]2C[C@H](Nc3ccc(-c4ccc5nn(C)cc5c4C)nn3)C[C@H]2C1)C(F)(F)C1CCOCC1 [compound 23, (3aR,5s,6aS)-2-(2,2-difluoro-2-(tetrahydro-2H-pyran-4-yl)ethyl-1,1-d2)-N-(6-(2,4-dimethyl-2H-indazol-5-yl)-pyridazin-3-yl)octahydrocyclopenta[c]pyrrol-5-amine]",remaining activity at 30 µM,Human M4; [2],4%
same,IC50,Human M4; [3],1.8 nM
"[2H]C([2H])(C1CCOCC1)N1C[C@H]2C[C@H](Nc3ccc(-c4ccc5nn(C([2H])([2H])[2H])cc5c4C)nn3)C[C@H]2C1 [compound 9, (3aR,5s,6aS)-N-(6-(4-methyl-2-(methyl-d3)-2H-indazol-5-yl)pyridazin-3-yl)-2-((tetrahydro-2H-pyran-4-yl)methyl-d2)octahydrocyclopenta[c]pyrrol-5-amine]",remaining activity at 30 µM,Human M4; [2],3%
same,IC50,Human M4; [3],0.37 nM
"[2H]C([2H])([2H])N(c1cc(C(F)(F)F)c(-c2ccc3nn(C)cc3c2C)nn1)[C@H]1C[C@@H]2CN(CC3CCOCC3)C[C@@H]2C1 [compound 5, (3aR,5s,6aS)-N-(6-(2,4-dimethyl-2H-indazol-5-yl)-5-(trifluoromethyl)pyridazin-3-yl)-N-(methyl-d3)-2-((tetrahydro-2H-pyran-4-yl)methyl)octahydrocyclopenta[c]pyrrol-5-amine]",remaining activity at 30 µM,Human M4; [2],3%
same,IC50,Human M4; [3],130 nM
"[2H]C([2H])([C@@H]1CCCOC1)N1C[C@H]2C[C@H](Nc3ccc(-c4ccc5nn(C)cc5c4C)nn3)C[C@H]2C1 [compound 13, (3aR,5s,6aS)-N-(6-(2,4-dimethyl-2H-indazol-5-yl)pyridazin-3-yl)-2-(((S)-tetrahydro-2H-pyran-3-yl)methyl-d2)octahydrocyclopenta[c]pyrrol-5-amine]",remaining activity at 30 µM,Human M4; [2],4%
same,IC50,Human M4; [3],0.49 nM
"Cn1cc2c(C(F)(F)F)c(-c3ccc(N[C@H]4C[C@@H]5CN(CC6CCOCC6)C[C@@H]5C4)nn3)ccc2n1 [compound 7, (3aR,5s,6aS)-N-(6-(2-methyl-4-(trifluoromethyl)-2H-indazol-5-yl)pyridazin-3-yl)-2-((tetrahydro-2H-pyran-4-yl)methyl)octahydrocyclopenta[c]pyrrol-5-amine]",remaining activity at 30 µM,Human M4; [2],3%
same,IC50,Human M4; [3],1.5 nM
"[2H]C([2H])([C@@H]1CCCCO1)N1C[C@H]2C[C@H](Nc3ccc(-c4ccc5nn(C)cc5c4C)nn3)C[C@H]2C1 [compound 12, (3aR,5s,6aS)-N-(6-(2,4-dimethyl-2H-indazol-5-yl)pyridazin-3-yl)-2-(((S)-tetrahydro-2H-pyran-2-yl)methyl-d2)octahydrocyclopenta[c]pyrrol-5-amine]",remaining activity at 30 µM,Human M4; [2],2%
same,IC50,Human M4; [3],0.36 nM
